This is an account of results in US11622975B2, “Compositions and methods for improved honey bee health” (priority 2019, dated 2023).

The subject of one data set is honey bee. The note with it: half of previously published honey bee LD50; used as dose in the cage study; cited from earlier work.
Data set [1] deals with honey bees. Description: Cage survival study of bees fed sublethal doses of pesticides with or without MBCD. Format: in vivo, Apis mellifera. The note with it: bees fed pesticide alone at sublethal dose in 50% sucrose; control 36 days. The method, then: This example illustrates the baseline effects of the inventive composition in the absence of an exogenous stressor. Samples of European honey bees, Apis mellifera, were collected from colonies maintained in the apiaries of the USDA-ARS Bee Research Laboratory in Beltsville, Md. Frames with emerging brood were removed from colonies and individually placed in a mesh-walled cage. The cages were transferred to an insect growth chamber at 34° C. and 70% humidity. After 24 hrs incubation, newly emerged honey bees were transferred to a honey bee rearing cup, with a top-feeder design, allowing for easy sampling of honey bees (see e.g., Evans et al., 2009). A 3 mL syringe filled with 50% sugar syrup mixture was inverted over the top of the rearing cup to provision the caged honey bees. The honey bees were also provisioned with 1.5 grams of honey bee pollen supplement in patty form (e.g., Bee-Pro®, available from Mann Lake Ltd, Hackensack, Minn.), supplemented 10% (w/w) with ground fresh pollen, and placed on cotton paper on the cup cage bottoms. Syringes and sucrose solution were changed every 3 days and cotton paper was changed once per week.
In this example, whether MBCD mitigates the toxicity of certain pesticides associated with honey bee death was investigated. Not intending to be theory-bound, it was hypothesized that the binding of hydrophobic pesticide molecules to CDs would translate into health benefits to honey bees that were exposed to such pesticides. Samples of honey bees were collected as in example 1. A cage study (n=30 bees per cage & 2 replicate cages per treatment) was performed using 50% sucrose solution that had been spiked with sublethal doses of common pesticides that are known to be toxic to honey bees to measure the ability of treatment MBCD compositions to confer protection to the honey bees. Analytical grade standards of clothianidin, imidacloprid, and chlorpyrifos (available from MilliporeSigma, St. Louis, Mo.) were first dissolved in acetone, then diluted to their final concentrations (Table 2) in 50% sugar syrup. The listed sublethal doses were derived from taking half of the previously published honey bee LD50s (referred to a “LD25” in Table 2). The solutions were administered via 3 mL syringes in rearing cups as previously stated. Fresh pesticide solutions were mixed every 3 days to coincide with syringe replacement (see e.g., Williamson et al., 2013; Li et al, 2017).
Median survival is represented for each treatment by (# days). Curves were compared using Log-Rank Mantel-Cox (p<0.0001 for clothianidin versus control, 1, or 10 μg MBCD; p<0.001 for chlorpyrifos versus control or 1 μg MBCD) and Gehan-Breslow-Wilcoxon (p<0.0001 for clothianidin versus control, 1, or 10 μg MBCD; p<0.05 for chlorpyrifos versus control or 1 μg MBCD). […] The chlorpyrifos treatment was able to reduce median lifespan on its own to 26 days compared to the 36 days of the control (FIG. 2C). While a dosage of 10 μg/bee MBCD did increase median lifespan to 30 days, there was not a significant change in median lifespan.

For data set [2], the system named is Deformed wing virus (DWV). Description: Viral load (RT-qPCR) in virus-infected honey bees after MBCD treatment. Format: in vivo, Apis mellifera. Particulars: clothianidin treated bees compared to bees supplemented with 20 ppm MBCD. How it is done:
The presence of DWV and Varroa destructor was determined as follows. Total RNA was extracted from whole body 12 individual honey bees using the TRIzol Reagent® (available from Thermo Fisher Scientific, Waltham, Mass.) by manufacturers specifications, and stored at −80° C. First-strand cDNA was synthesized using the Superscript III Reverse Transcriptase (available in a kit from Thermo Fisher Scientific). Briefly, each reaction contained: 3 μl total bee RNA (˜1 μg/μl), 1 μl of 10 mM dNTPs, 1 μl random primers (0.15 μg/μl), 1 μL of Oligo(dT), 1 μl of 0.1 M DTT (0.1 M), 4 μl 5×First-Strand Buffer, 1 uL of 200 U/μL RnaseOUT, 1 μl of 200 U/μl SuperScript III Reverse Transcriptase, and 7 μl Nuclease-free water. The reaction mixture was incubated at 25° C. for 5 min, 55° C. for 2 hrs, and 70° C. for 15 min, then stored at −20° C. until use. Transcript levels (RT-qPCR analysis) were quantified using the Brilliant III Ultra-Fast SYBR Green® QPCR Master Mix (Agilent Technologies, Inc., Santa Clara, Calif.) on a CFX384 Touch Real Time PCR Detection System (Bio-Rad Laboratories, Inc., Hercules, Calif.). Samples were incubated at 95° C. for 5 min, followed by 40 cycles of 95° C. for 20 s, 59° C. for 20 s, and 72° C. for 20 s. Thereafter, a melt curve analysis from 65° C. to 95° C. was performed to confirm product specificity. For the detection and quantification of negative stranded bee viruses, replication intermediates, TAG-DWV primers were substituted for random primers or oligos (see e.g., Boncristiani et al., 2009). The fold difference in viral concentration among different treatment groups was determined using the comparative Ct method (2^−ΔΔCT method) (see e.g., Livak & Schmittgen, 2001). Calibrators were chosen as the highest average treatment ΔCt value for each experiment.
Emerging bees that had non-deformed wings (i.e., asymptomatic) were selected for a cage study (n=30 bees per cage & 6 replicate cages per treatment). […] Virally infected untreated bees were compared to bees fed 10 μg/bee MBCD in 50% sucrose solution. In FIG. 6A, DWV (+) sense viral genome titers were compared 3 and 6 days after treatment. An unpaired, 2-tailed Student's T-Test was performed to determine statistical significance (p<0.05 at 3 days feeding; N.S.=Non-significant 6 days after treatment). In FIG. 6B, DWV (−) sense replicative strand titers were compared 3 and 6 days after treatment. An unpaired, 2-tailed Student's T-Test was performed to determine statistical significance (p<0.0001 for 3 days post treatments; p=0.049 for 6 days post treatment). The “★” denotes the sample chosen as the 2^−ΔΔCT calibrator and bars denote standard error.
(In qPCR the cycle at which signal appears reflects the starting amount.)

The test system of data set [3] is honey bees. The data set is described as follows: MBCD and HPBCD alpha-tocopherol inclusion complex treatment of clothianidin-exposed bees, survival. Format: in vivo, Apis mellifera. The note with it: clothianidin treatment alone, n=280 bees/treatment. How it is done:
MBCD & HPBCD alpha-tocopherol inclusion complexes were formulated using 2.33 μL of +-(α)-tocopherol (1,000 I.U., available from MilliporeSigma, St. Louis, Mo.) added to 1 g of MBCD or HPBCD to arrive at a concentration of approximately 20 I.U. of tocopherol/bee/day and 10 μg (or other indicted dosage) of BCD/bee/day. The resulting powder can be stored at −20° C. or immediately dissolved into 4.166 L of water containing 50% sucrose. The resulting solution is stable and stored at 4° C. until further use. The comparative effects of MBCD versus HPBCD treated bees are shown for lab-controlled environment (n=280 bees/treatment).

Another data set deals with honey bee colonies. Description: Overwintering field trial of honey bee colonies treated with HPBCD and acaricide. Format: in vivo. Particulars: for colony (hive) loss: fed October to December, surviving hives counted in March, 10 colonies per treatment, no treatment about 50%; for total frames containing bees: measured in March after overwintering, no treatment 50 frames. The method, then:
This example illustrates the use of HPBCD in a field setting. Four treatments with 10 colonies per treatment were performed as follows: (i) No HPBCD and no acaricide (No Treatment control), (ii) acaricide alone (Amitraz), (iii) HPBCD, and (iv) a combination of Amitraz and HPBCD. Colonies were fed treatments using a top box feeder in a “Langstroth Hive” from October to December, then surviving hives were counted in March of the following year and numbers of Langstroth frames containing bees were measured. About 50% of the colonies that received no treatment were lost; while it is a high level of loss it was within the expected range for hives that received no extra management besides sugar syrup supplementation (which agrees with the national average for untreated colonies). The group receiving only Amitraz, the current industry standard for mite control, lost about 20% of the colonies. HPBCD on its own was able to reduce hive loss to about 30%. […] Not intending to be bound by theory, one possible explanation for this profound effect is that Amitraz was lethal to mites based on contact (LC50), while the possible sub lethal and chronic affects for the honey bee were dosage based (LD50) as evidenced by slower behavioral response time (see e.g., De Mattos, 2017). It is likely the bees ingest the HPBCD and the Amitraz was sequestered rendering its effects on the bee diminished, while the groups that received no HPBCD were still susceptible to the effects of the acaricide.

With `CCOP(=S)(OCC)Oc1nc(Cl)c(Cl)cc1Cl` [Chlorpyrifos, chlorpyrifos, reference compound], in the data set on honey bee, the “Sublethal LD25” value is reported as 0.43 ng/bee. In the data set on honey bees [1], the median lifespan was 26 days.
`CN/C(=N\[N+](=O)[O-])NCc1cnc(Cl)s1` [Clothianidin, clothianidin, reference compound]: the “Sublethal LD25” value in the data set on honey bee is recorded as 1.0 ng/bee. Besides, the DWV levels result in data set [2] is “higher levels of DWV”. For the same molecule, the median lifespan in the data set on honey bees [1] is 13.5 days; in the data set with honey bees [3], 22 days.
As for `CC(O)COC[C@H]1O[C@@H]2O[C@H]3[C@H](O)[C@@H](O)[C@@H](O[C@H]4[C@H](O)[C@@H](O)[C@@H](O[C@H]5[C@H](O)[C@@H](O)[C@@H](O[C@H]6[C@H](O)[C@@H](O)[C@@H](O[C@H]7[C@H](O)[C@@H](O)[C@@H](O[C@H]8[C@H](O)[C@@H](O)[C@@H](O[C@H]1[C@H](O)[C@H]2O)O[C@@H]8COCC(C)O)O[C@@H]7COCC(C)O)O[C@@H]6COCC(C)O)O[C@@H]5COCC(C)O)O[C@@H]4COCC(C)O)O[C@@H]3COCC(C)O` (stereo partly drawn) [HPBCD, hydroxypropyl-β-cyclodextrin], in the data set with honey bee colonies, the “colony (hive) loss” value is recorded as “about 30%” and the “total frames containing bees” value is 53.5 frames.
For `Cc1ccc(/N=C/N(C)/C=N/c2ccc(C)cc2C)c(C)c1` [Amitraz, amitraz, reference compound], in that order: “about 20%” and 48.5 frames.
As to `O=[N+]([O-])NC1=NCCN1Cc1ccc(Cl)nc1` [Imidacloprid, imidacloprid, reference compound], the “Sublethal LD25” value in the data set on honey bee is on record as 4.3 ng/bee. The same molecule yielded a median lifespan with honey bees [1] of 32 days.
